Experimental data as given in the kinase profiling compilation of Christmann-Franck et al. (2016).

Columns and labels:
Assay in all cases: KINOMEscan competition binding
Conditions in all cases: compound 10.0 µM
ACVR1B (human) = ACVR1B (human) (UniProt P36896)
ACVR2B (human) = ACVR2B (human) (UniProt Q13705)
ACVRL1 (human) = ACVRL1 (human) (UniProt P37023)
AKT1 (human) = AKT1 (human) (UniProt P31749)
AURKA (human) = AURKA (human) (UniProt O14965)
AURKC (human) = AURKC (human) (UniProt Q9UQB9)
CDK18 (human) = CDK18 (human) (UniProt Q07002)
CDKL2 (human) = CDKL2 (human) (UniProt Q92772)
CSNK1G3 (human) = CSNK1G3 (human) (UniProt Q9Y6M4)
DAPK3 (human) = DAPK3 (human) (UniProt O43293)
DDR2 (human) = DDR2 (human) (UniProt Q16832)
DYRK1B (human) = DYRK1B (human) (UniProt Q9Y463)
EIF2AK2 (human) = EIF2AK2 (human) (UniProt P19525)
EPHA3 (human) = EPHA3 (human) (UniProt P29320)
EPHB4 (human) = EPHB4 (human) (UniProt P54760)
EPHB4 (human), sequence (P54760 whole entry, looked up): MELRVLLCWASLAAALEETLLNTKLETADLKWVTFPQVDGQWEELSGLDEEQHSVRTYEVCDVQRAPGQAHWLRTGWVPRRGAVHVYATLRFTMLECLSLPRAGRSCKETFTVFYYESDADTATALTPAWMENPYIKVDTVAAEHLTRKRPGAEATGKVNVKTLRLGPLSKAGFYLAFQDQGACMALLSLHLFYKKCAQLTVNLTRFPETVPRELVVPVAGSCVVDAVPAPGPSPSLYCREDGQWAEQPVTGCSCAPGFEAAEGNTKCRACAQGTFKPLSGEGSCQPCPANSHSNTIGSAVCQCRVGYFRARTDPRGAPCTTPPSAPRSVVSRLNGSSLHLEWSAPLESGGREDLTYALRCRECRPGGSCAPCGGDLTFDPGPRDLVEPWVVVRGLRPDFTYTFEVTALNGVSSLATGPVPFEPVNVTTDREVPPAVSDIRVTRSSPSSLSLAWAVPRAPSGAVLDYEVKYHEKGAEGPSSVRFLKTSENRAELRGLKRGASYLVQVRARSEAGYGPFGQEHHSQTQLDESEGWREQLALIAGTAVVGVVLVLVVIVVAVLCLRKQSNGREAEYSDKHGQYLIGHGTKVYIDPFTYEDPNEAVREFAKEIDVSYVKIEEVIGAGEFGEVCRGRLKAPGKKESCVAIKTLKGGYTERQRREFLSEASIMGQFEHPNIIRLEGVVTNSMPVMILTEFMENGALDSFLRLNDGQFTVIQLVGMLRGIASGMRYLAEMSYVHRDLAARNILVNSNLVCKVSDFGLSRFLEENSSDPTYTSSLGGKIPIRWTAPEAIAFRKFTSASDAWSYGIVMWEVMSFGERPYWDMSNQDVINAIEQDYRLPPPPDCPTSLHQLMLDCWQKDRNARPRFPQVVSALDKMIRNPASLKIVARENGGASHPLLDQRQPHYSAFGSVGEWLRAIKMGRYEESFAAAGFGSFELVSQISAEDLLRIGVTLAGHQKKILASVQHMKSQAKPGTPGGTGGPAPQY

FES (human) = FES (human) (UniProt P07332)
FLT4 (human) = FLT4 (human) (UniProt P35916)
[1] = molecular target: JAK1 JH2 pseudokinase (human) (UniProt P23458)
JAK1 JH2 pseudokinase (human), sequence (P23458 whole entry, looked up): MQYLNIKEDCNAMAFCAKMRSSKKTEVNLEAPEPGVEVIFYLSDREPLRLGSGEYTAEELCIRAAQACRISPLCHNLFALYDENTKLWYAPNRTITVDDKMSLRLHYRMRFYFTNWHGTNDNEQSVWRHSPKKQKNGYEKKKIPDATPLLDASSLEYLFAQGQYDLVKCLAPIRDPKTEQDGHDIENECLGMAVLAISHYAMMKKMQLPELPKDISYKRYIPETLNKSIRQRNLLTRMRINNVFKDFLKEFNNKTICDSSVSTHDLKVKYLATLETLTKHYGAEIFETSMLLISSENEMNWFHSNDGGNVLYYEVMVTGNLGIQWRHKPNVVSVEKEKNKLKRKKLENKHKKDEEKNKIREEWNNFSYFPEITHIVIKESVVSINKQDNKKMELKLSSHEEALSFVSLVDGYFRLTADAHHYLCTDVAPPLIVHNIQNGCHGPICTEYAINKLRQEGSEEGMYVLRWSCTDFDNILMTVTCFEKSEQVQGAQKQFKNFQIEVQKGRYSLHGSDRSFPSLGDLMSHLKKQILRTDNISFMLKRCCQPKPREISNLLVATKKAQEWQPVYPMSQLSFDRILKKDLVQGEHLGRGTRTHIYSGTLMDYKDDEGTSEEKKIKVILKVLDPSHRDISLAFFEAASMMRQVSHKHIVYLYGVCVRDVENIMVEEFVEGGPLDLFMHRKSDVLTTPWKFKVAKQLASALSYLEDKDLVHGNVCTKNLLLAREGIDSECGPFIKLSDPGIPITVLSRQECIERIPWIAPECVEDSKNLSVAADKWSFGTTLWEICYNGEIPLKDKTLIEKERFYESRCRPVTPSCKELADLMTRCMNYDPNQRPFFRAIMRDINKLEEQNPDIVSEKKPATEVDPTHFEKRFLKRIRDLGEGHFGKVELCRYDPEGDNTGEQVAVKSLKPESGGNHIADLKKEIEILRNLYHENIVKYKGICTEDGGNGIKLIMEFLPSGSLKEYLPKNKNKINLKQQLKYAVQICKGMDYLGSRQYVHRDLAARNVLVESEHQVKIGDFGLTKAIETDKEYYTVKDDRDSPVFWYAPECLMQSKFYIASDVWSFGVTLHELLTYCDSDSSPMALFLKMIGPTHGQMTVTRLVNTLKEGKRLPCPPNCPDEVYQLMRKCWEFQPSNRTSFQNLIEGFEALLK

[2] = molecular target: JAK3 JH1 catalytic (human) (UniProt P52333)
MAP3K10 (human) = MAP3K10 (human) (UniProt Q02779)
MAP3K11 (human) = MAP3K11 (human) (UniProt Q16584)
MAPK13 (human) = MAPK13 (human) (UniProt O15264)
MARK2 (human) = MARK2 (human) (UniProt Q7KZI7)
MKNK1 (human) = MKNK1 (human) (UniProt Q9BUB5)
MYLK4 (human) = MYLK4 (human) (UniProt Q86YV6)
MYLK4 (human), sequence (Q86YV6 whole entry, looked up): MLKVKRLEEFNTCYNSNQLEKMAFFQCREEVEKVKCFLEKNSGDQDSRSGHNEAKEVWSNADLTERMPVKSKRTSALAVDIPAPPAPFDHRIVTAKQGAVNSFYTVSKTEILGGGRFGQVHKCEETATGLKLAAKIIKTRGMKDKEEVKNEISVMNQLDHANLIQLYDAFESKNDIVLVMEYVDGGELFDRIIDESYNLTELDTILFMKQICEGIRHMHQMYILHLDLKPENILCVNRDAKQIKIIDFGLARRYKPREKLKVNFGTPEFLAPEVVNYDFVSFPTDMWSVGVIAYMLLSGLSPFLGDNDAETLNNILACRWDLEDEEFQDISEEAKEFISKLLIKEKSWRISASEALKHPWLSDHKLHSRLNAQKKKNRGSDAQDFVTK

MYO3A (human) = MYO3A (human) (UniProt Q8NEV4)
MYO3A (human), sequence (Q8NEV4 whole entry, looked up): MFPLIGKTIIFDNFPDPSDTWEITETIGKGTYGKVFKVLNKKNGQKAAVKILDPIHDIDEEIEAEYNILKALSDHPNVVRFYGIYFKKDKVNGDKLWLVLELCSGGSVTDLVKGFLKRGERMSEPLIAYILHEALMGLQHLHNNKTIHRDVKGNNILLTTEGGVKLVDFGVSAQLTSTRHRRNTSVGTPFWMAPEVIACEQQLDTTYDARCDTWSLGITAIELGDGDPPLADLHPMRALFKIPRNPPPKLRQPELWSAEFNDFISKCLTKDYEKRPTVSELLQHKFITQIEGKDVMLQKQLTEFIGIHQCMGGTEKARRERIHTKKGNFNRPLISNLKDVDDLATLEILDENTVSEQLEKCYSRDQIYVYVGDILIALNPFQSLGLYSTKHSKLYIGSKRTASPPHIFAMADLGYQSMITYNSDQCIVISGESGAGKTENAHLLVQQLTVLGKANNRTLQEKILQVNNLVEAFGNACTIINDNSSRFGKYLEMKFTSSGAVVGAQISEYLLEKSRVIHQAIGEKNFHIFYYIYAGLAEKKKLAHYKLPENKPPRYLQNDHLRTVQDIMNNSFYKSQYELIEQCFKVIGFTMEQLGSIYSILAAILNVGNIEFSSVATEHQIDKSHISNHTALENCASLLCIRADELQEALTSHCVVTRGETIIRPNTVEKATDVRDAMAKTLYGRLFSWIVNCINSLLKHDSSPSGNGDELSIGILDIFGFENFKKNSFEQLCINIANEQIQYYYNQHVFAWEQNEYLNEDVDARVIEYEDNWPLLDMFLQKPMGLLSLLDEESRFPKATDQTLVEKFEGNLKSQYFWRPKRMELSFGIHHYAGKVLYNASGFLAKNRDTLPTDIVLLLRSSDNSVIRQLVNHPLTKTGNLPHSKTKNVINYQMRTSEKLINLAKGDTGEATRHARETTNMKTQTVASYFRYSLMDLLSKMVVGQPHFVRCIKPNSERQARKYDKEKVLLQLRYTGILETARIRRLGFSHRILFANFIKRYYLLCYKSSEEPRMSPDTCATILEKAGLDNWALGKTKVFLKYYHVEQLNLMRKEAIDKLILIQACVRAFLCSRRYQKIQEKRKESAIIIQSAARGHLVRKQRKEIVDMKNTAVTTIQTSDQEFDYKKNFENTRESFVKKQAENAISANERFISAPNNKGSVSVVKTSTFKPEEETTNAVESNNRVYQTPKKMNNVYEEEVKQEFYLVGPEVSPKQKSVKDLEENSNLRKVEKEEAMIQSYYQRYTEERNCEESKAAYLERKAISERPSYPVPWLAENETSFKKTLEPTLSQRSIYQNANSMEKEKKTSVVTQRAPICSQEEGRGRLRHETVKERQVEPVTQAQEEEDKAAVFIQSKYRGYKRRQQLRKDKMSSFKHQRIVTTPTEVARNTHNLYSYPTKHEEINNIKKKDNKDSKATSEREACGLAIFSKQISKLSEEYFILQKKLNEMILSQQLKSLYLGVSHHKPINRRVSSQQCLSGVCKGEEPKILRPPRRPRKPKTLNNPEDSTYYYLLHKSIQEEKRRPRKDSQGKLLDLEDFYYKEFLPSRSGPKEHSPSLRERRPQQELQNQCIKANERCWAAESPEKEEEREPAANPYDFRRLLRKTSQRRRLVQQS

NLK (human) = NLK (human) (UniProt Q9UBE8)
PAK4 (human) = PAK4 (human) (UniProt O96013)
PHKG2 (human) = PHKG2 (human) (UniProt P15735)
PIK3CD (human) = PIK3CD (human) (UniProt O00329)
PKMYT1 (human) = PKMYT1 (human) (UniProt Q99640)
RPS6KA1 KD1 (human) = RPS6KA1 KD1 (human) (UniProt Q15418)
RPS6KA5 KD1 (human) = RPS6KA5 KD1 (human) (UniProt O75582)
STK17A (human) = STK17A (human) (UniProt Q9UEE5)
STK3 (human) = STK3 (human) (UniProt Q13188)
STK32C (human) = STK32C (human) (UniProt Q86UX6)
SYK (human) = SYK (human) (UniProt P43405)
TXK (human) = TXK (human) (UniProt P42681)
TYRO3 (human) = TYRO3 (human) (UniProt Q06418)
WEE2 (human) = WEE2 (human) (UniProt P0C1S8)

ACVR2B (human), sequence (Q13705 whole entry, looked up): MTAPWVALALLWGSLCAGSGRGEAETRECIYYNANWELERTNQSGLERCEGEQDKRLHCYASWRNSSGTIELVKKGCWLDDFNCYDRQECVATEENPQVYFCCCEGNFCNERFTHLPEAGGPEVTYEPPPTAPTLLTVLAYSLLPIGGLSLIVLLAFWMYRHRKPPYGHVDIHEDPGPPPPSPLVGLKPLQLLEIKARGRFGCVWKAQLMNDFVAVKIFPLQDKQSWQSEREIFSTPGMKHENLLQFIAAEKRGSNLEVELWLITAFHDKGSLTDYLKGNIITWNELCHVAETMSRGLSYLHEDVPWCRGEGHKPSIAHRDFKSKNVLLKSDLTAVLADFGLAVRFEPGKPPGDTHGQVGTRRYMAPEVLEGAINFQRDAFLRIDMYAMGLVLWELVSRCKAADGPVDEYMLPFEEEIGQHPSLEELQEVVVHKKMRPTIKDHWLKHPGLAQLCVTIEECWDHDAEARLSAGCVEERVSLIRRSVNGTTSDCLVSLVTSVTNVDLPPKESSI
AURKA (human), sequence (O14965 whole entry, looked up): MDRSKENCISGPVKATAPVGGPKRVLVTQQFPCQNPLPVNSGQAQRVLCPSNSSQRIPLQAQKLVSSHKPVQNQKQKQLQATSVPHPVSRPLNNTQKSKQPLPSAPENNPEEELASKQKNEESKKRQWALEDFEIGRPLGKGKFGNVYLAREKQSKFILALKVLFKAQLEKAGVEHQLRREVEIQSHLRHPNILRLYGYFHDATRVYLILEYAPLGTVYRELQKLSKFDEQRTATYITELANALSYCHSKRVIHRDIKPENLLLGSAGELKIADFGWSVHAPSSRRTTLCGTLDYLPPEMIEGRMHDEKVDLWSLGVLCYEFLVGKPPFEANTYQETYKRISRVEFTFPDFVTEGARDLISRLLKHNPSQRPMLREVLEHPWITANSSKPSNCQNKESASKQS

Row | SMILES | kinase still bound, per cent of control (ACVR1B (human)) [%] | kinase still bound, per cent of control (ACVR2B (human)) [%] | kinase still bound, per cent of control (ACVRL1 (human)) [%] | kinase still bound, per cent of control (AKT1 (human)) [%] | kinase still bound, per cent of control (AURKA (human)) [%] | kinase still bound, per cent of control (AURKC (human)) [%] | kinase still bound, per cent of control (CDK18 (human)) [%] | kinase still bound, per cent of control (CDKL2 (human)) [%] | kinase still bound, per cent of control (CSNK1G3 (human)) [%] | kinase still bound, per cent of control (DAPK3 (human)) [%] | kinase still bound, per cent of control (DDR2 (human)) [%] | kinase still bound, per cent of control (DYRK1B (human)) [%] | kinase still bound, per cent of control (EIF2AK2 (human)) [%] | kinase still bound, per cent of control (EPHA3 (human)) [%] | kinase still bound, per cent of control (EPHB4 (human)) [%] | kinase still bound, per cent of control (FES (human)) [%] | kinase still bound, per cent of control (FLT4 (human)) [%] | kinase still bound, per cent of control [1] [%] | kinase still bound, per cent of control [2] [%] | kinase still bound, per cent of control (MAP3K10 (human)) [%] | further results
1 | C=CC(=O)Nc1cccc(Oc2nc(Nc3ccc(N4CCN(C)CC4)cc3OC)ncc2Cl)c1 | 100 | 100 | 100 | 100 | 28 | 4.5 | 100 | 100 | 100 | 7.4 | 100 | 17 | 100 | 100 | 100 | 11 | 100 | 100 | 0.4 | 100 | kinase still bound, per cent of control (MAP3K11 (human)): 100%; kinase still bound, per cent of control (MAPK13 (human)): 100%; kinase still bound, per cent of control (MARK2 (human)): 100%; kinase still bound, per cent of control (MKNK1 (human)): 100%; kinase still bound, per cent of control (MYLK4 (human)): 24%; kinase still bound, per cent of control (MYO3A (human)): 28%; kinase still bound, per cent of control (NLK (human)): 100%; kinase still bound, per cent of control (PAK4 (human)): 100%; kinase still bound, per cent of control (PHKG2 (human)): 3.5%; kinase still bound, per cent of control (PIK3CD (human)): 100%; kinase still bound, per cent of control (PKMYT1 (human)): 100%; kinase still bound, per cent of control (RPS6KA1 KD1 (human)): 12%; kinase still bound, per cent of control (RPS6KA5 KD1 (human)): 100%; kinase still bound, per cent of control (STK17A (human)): 1.6%; kinase still bound, per cent of control (STK3 (human)): 100%; kinase still bound, per cent of control (STK32C (human)): 100%; kinase still bound, per cent of control (SYK (human)): 100%; kinase still bound, per cent of control (TXK (human)): 16%; kinase still bound, per cent of control (TYRO3 (human)): 100%; kinase still bound, per cent of control (WEE2 (human)): 100%
2 | Cc1ccc(C(=O)Nc2cccc(C(F)(F)F)c2)cc1Nc1cncc(C(N)=O)c1 | 100 | 100 | 100 | 100 | 100 | 100 | 100 | 100 | 100 | 100 | 0 | 100 | 100 | 8.8 | 6.9 | 100 | 100 | 100 | 100 | 100 | kinase still bound, per cent of control (MAP3K11 (human)): 100%; kinase still bound, per cent of control (MAPK13 (human)): 100%; kinase still bound, per cent of control (MARK2 (human)): 100%; kinase still bound, per cent of control (MKNK1 (human)): 100%; kinase still bound, per cent of control (MYLK4 (human)): 100%; kinase still bound, per cent of control (MYO3A (human)): 100%; kinase still bound, per cent of control (NLK (human)): 100%; kinase still bound, per cent of control (PAK4 (human)): 100%; kinase still bound, per cent of control (PHKG2 (human)): 100%; kinase still bound, per cent of control (PIK3CD (human)): 100%; kinase still bound, per cent of control (PKMYT1 (human)): 100%; kinase still bound, per cent of control (RPS6KA1 KD1 (human)): 100%; kinase still bound, per cent of control (RPS6KA5 KD1 (human)): 100%; kinase still bound, per cent of control (STK17A (human)): 100%; kinase still bound, per cent of control (STK3 (human)): 100%; kinase still bound, per cent of control (STK32C (human)): 100%; kinase still bound, per cent of control (SYK (human)): 100%; kinase still bound, per cent of control (TXK (human)): 100%; kinase still bound, per cent of control (TYRO3 (human)): 100%; kinase still bound, per cent of control (WEE2 (human)): 100%
3 | COc1cc(N2CCN(C)CC2)ccc1Nc1nc(N)c(C(=O)c2c(Cl)cccc2Cl)s1 | 100 | 92 | 84 | 100 | 100 | 100 | 78 | 93 | 79 | 78 | 100 | 42 | 75 | 82 | 97 | 45 | 100 | 100 | 100 | 100 | kinase still bound, per cent of control (MAP3K11 (human)): 96%; kinase still bound, per cent of control (MAPK13 (human)): 63%; kinase still bound, per cent of control (MARK2 (human)): 90%; kinase still bound, per cent of control (MKNK1 (human)): 51%; kinase still bound, per cent of control (MYLK4 (human)): 100%; kinase still bound, per cent of control (MYO3A (human)): 85%; kinase still bound, per cent of control (NLK (human)): 85%; kinase still bound, per cent of control (PAK4 (human)): 100%; kinase still bound, per cent of control (PHKG2 (human)): 43%; kinase still bound, per cent of control (PIK3CD (human)): 98%; kinase still bound, per cent of control (PKMYT1 (human)): 100%; kinase still bound, per cent of control (RPS6KA1 KD1 (human)): 100%; kinase still bound, per cent of control (RPS6KA5 KD1 (human)): 100%; kinase still bound, per cent of control (STK17A (human)): 100%; kinase still bound, per cent of control (STK3 (human)): 85%; kinase still bound, per cent of control (STK32C (human)): 99%; kinase still bound, per cent of control (SYK (human)): 59%; kinase still bound, per cent of control (TXK (human)): 100%; kinase still bound, per cent of control (TYRO3 (human)): 100%; kinase still bound, per cent of control (WEE2 (human)): 100%
